Data: patent US10080784B2, “Enhanced therapeutic usage of a purine nucleoside phosphorylase or nucleoside hydrolase prodrug” (SOUTHERN RESEARCH INSTITUTE, priority 2011, dated 2018)
Values after ≈ are worked out from the molar mass of the structure shown. “Also recorded” adds a separate entry of the source.

What was measured:
[1] = Limit of solubility of F-Ade in water; assay type: physicochemical; settings: dissolved in water
[2] = tested on: parental D54 tumors (no E. coli PNP expression); experiment: Intratumoral injection into parental D54 tumors (no E. coli PNP expression)
Procedure: Parental and E. coli PNP expressing D54MG (human glioma) tumor cells (2×10^7 cells) are injected subcutaneously into the flanks of nude mice (nu/nu) purchased from Charles River Laboratories (Wilmington, Mass.). D54 tumor cells stably transduced with E. coli PNP are prepared as described previously (Parker et al. Cancer Gene Therapy 2011 June; 18(6):390-8). Tumors are measured with calipers and an estimate of the weight calculated using the equation, (length×width^2)/2=mm^3, and converted to mg assuming unit density. […] Each treatment arm of each group contained at least 6 mice. Mice are monitored daily for weight loss and twice weekly for tumor dimensions. T-C (tumor growth delay) is taken as the difference in days to 2 doublings between drug-treated and saline-treated groups. The time to the evaluation point for each animal (2 doublings) is used as the end point in a Student's t-test, the Mann-Whitney rank sum test, or a life table analysis in order to statistically compare growth data between treatment groups. All procedures are performed in accordance with a protocol approved by the IACUC of Southern Research Institute. F-araAMP is obtained from Schering A.-G. (Berlin, Germany). In this and subsequent examples, F-Ade is obtained from General Intermediates of Canada, Inc. (Edmonton, Alberta, Canada). Treatments are initiated when tumors are 250 to 300 mg (˜1-1.5% of total animal weight).
In FIG. 2A, parental D54 tumor cells are mixed with D54 tumor cells that had been transduced with E. coli PNP to a final proportion in which 10% express the transgene. This 90/10 mixture is injected sc into the flanks of nude mice. Tumors are injected once per day for 3 consecutive days starting on day 14 with 150 μl of saline, 1.5 mg of F-araAMP dissolved in saline, or 3 mg of F-araAMP is dissolved in saline. […] In FIG. 2B, parental D54 tumor cells (no E. coli PNP expression) are injected sc into the flanks of nude mice. Tumors are inoculated once per day for 3 consecutive days starting on day 14 with 150 μl of saline, 3 mg F-araAMP is dissolved in saline, 0.15 mg of F-Ade dissolved in saline, 1.26 mg of F-Ade dissolved in […] DMSO, 0.63 mg of F-Ade dissolved in DMSO, or DMSO.
As noted above, the amount of F-araAMP given intratumorally (in FIG. 2A) is less than the total intraperitoneal dose described in FIG. 1. In order to investigate the impact of higher doses of F-araAMP, the F-araAMP is dissolved in DMSO, and given at concentrations well tolerated IT, but well above the maximally-tolerated dose if administered IP (Hong et al. Cancer Res. 2004; 64: 6610-6615). Three doses of 6 or 24 mg is administered by IT injection to tumors in which 10% of cells expressed E. coli PNP (FIG. 2C). Parental D54 tumor cells or mixtures of D54 tumor cells in which 10% of the cells express E. coli PNP are injected sc into the flanks of nude mice. Tumors are injected once per day for 3 consecutive days starting on day 17 with 150 μl of DMSO, 24 mg F-araAMP in DMSO, or 6 mg F-araAMP in DMSO.

[3] = tested on: D54 tumors that express E. coli PNP in 5% of the cells; experiment: Systemic intraperitoneal F-araAMP on D54 tumors expressing E. coli PNP in 5% of cells; assay type: in vivo, nude mice
Procedure: Intraperitoneal treatment with F-araAMP (250 mg/kg once per day for 3 consecutive days; 167 mg/kg 3 times per day for 3 consecutive days; 100 mg/kg 5 times a day for 3 consecutive days; or vehicle control 5 times a day×3 days) began on day 17 when tumors are approximately 250 mg. […] (FIG. 1)

[4] = tested on: D54 tumors in which 10% of cells express E. coli PNP; experiment: F-araAMP plus radiation on D54 tumors in which 10% of cells express E. coli PNP; settings: 3 mg F-araAMP in saline x3, radiation 4 Gy x3, 3 hours after injection
Procedure: Locally advanced solid tumors often become resistant to radiation therapy. As a test of adjuvant E. coli PNP in this setting, F-araAMP injection together with external beam radiation is investigated.
D54 tumor cells in which 10% of cells expressed E. coli PNP are injected sc into the flanks of nude mice. The tumors are treated with radiation, F-araAMP, or F-araAMP plus radiation. In two treatment groups, tumors are injected once per day for 3 consecutive days with 150 μl of either saline or 3 mg F-araAMP dissolved in saline. In two other treatment groups radiation (4 Gy) is administered once per day for 3 consecutive days 3 hours after injection of 150 μl of either saline (filled squares) or 3 mg F-araAMP dissolved in saline (open squares).

[5] = tested on: D54 tumors; experiment: Radioactivity in tumors after intratumoral injection of [3H]F-araAMP, parental D54 tumors; assay type: in vivo, mice
Procedure: Total radioactivity is determined after injection of 3 mg [8-^3H]F-araAMP (10 μCi) into 300 mg D54 flank tumors. [8-^3H]F-araAMP is obtained from Moravek Biochemicals Inc. (Brea, Calif.). Tumors are removed from the mice at 10 minutes or 4 hours after injection and dissolved in 1 ml of Soluene 350 (Packard Instrument, Meriden, Conn.) by incubating at 55° C. for 4 hours. A portion of each extract is mixed with scintillation fluid and radioactivity determined.
In an effort to understand the pharmacodynamics of intratumoral (IT) F-araAMP, the levels of prodrug activation in parental (D54) tumors and tumors in which 10% of cells expressed E. coli PNP are monitored (Table 1). Tumor tissue is collected 10 minutes or 4 hours after IT injection of 3 mg [^3H]-F-araAMP and the amount of radioactivity remaining in the tumor mass determined.
Three mg (8,200 nmoles) of [^3H]F-araAMP (10 μCi/injection) are injected into D54 tumors or D54 tumors in which 10% of the cells express E. coli PNP as described in FIG. 2. Tumors (approximately 300 mg) are removed 10 minutes and 4 hours after injection with F-araAMP and the amount of radioactivity in each tumor determined. There are 4 tumors per group.

[6] = tested on: D54 tumors in which 10% of the cells express E. coli PNP; experiment: Intratumoral injection into D54 tumors in which 10% of cells express E. coli PNP; assay type: in vivo, nude mice
Procedure: Parental and E. coli PNP expressing D54MG (human glioma) tumor cells (2×10^7 cells) are injected subcutaneously into the flanks of nude mice (nu/nu) purchased from Charles River Laboratories (Wilmington, Mass.). […] Tumors are measured with calipers and an estimate of the weight calculated using the equation, (length×width^2)/2=mm^3, and converted to mg assuming unit density. […] Each treatment arm of each group contained at least 6 mice. Mice are monitored daily for weight loss and twice weekly for tumor dimensions. T-C (tumor growth delay) is taken as the difference in days to 2 doublings between drug-treated and saline-treated groups. The time to the evaluation point for each animal (2 doublings) is used as the end point in a Student's t-test, the Mann-Whitney rank sum test, or a life table analysis in order to statistically compare growth data between treatment groups. […] Treatments are initiated when tumors are 250 to 300 mg (˜1-1.5% of total animal weight).

[7] = schedule q1d×3; cited from earlier work
[8] = target: T1, E. coli PNP (Escherichia coli, UniProt P0ABP8); settings: cited from earlier work
T1 construct: expressed in transfected cells; host or cells: D54MG human glioma cells, either stably transduced by lentivirus or transduced in vivo with adenoviral vector Ad/PNP, grown as xenografts in nude mice; Crude tumor extracts were assayed

[9] = target: T1, E. coli PNP; experiment: Measurement of E. coli PNP activity in tumor extracts; assay type: biochemical; settings: D54 tumors on day 20 after 2×10^11 VP Ad/PNP IT twice per day x3 days, FIG. 5A experiment
Procedure: The proportion of lentiviral transduced cells in a tumor mass is verified by measuring E. coli PNP activity in representative cancers removed from mice on the first day of drug treatment. Crude extracts are prepared as described previously (Parker et al. Human Gene Therapy 1997; 8: 1637-1644) after tumor excision from the flanks of mice. […] The formation of MeP is monitored using reverse phase HPLC. By convention, one unit of PNP activity is defined as the amount of extract necessary to cleave 1 nmole of MeP-dR per mg protein in a 1 hour period.

T1 sequence (P0ABP8 whole entry): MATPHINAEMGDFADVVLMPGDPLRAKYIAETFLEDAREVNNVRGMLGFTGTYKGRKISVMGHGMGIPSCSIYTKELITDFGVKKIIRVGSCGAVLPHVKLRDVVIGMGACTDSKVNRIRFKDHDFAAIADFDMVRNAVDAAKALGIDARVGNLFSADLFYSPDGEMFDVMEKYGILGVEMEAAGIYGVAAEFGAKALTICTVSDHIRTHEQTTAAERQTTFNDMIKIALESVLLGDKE

In the case of Nc1nc(F)nc2nc[nH]c12 [F-Ade, 2-fluoroadenine], the solubility [1] is reported as 1000 µg/mL (≈ 6.53 mM), the “Tumor growth, P versus DMSO vehicle group” value ([2]; 0.63 mg F-Ade in DMSO IT once per day x3, FIG. 2B) is reported as 0.011 and the Antitumor effect ([2]; F-Ade 0.15 ml of 1 mg/ml in water/saline (highest possible solubility) IT) is reported as “no antitumor effect; also recorded: fails to elicit antitumor activity”. For the same compound, the Antitumor effect ([2]; F-Ade in DMSO IT (0.15 ml of 8.6 mg/ml; 1.26 mg x3)) was “modest antitumor effect; also recorded: minimal antitumor activity”, the “Maximally tolerated dose (MTD)” value ([2]; F-Ade in DMSO, three IT injections) was about 1.26 mg and the “Decrease in body weight” value ([2]; three IT injections of 1.26 mg F-Ade in DMSO) was 10%. The Death of mice ([2]; three IT injections of 2.5 mg F-Ade in DMSO) was 3 of 6 and the Death of mice ([2]; three IT injections of 5 mg F-Ade in DMSO) was 4 of 6.
For Nc1nc(F)nc2c1ncn2[C@@H]1O[C@H](COP(=O)(O)O)[C@@H](O)[C@@H]1O [F-araAMP, fludarabine phosphate], the “Gross tissue damage in region surrounding the tumor” value ([3]; IP F-araAMP) was “no gross tissue damage”, the “Decrease in body weight” value ([3]; IP F-araAMP, quickly regained after schedule completed) was 10 to 20% and the “Tumor growth, P versus vehicle treated group” value ([3]; all IP F-araAMP groups (250 mg/kg x3, 167 mg/kg x9, 100 mg/kg x15 over 3 days), from day 17, FIG. 1) was under 0.001. For the same compound, the “Tumor growth, P of radiation plus F-araAMP versus F-araAMP only” value [4] was 0.004, the “Tumor growth, P of radiation plus F-araAMP versus radiation only” value [4] was under 0.001 and the “Radioactivity in tumor, nmoles F-araAMP/gram of tissue” value ([5]; 10 min after IT injection of 3 mg [3H]F-araAMP) was 980 ± 730 nmoles F-araAMP/gram of tissue. The “Radioactivity in tumor, nmoles F-araAMP/gram of tissue” value ([5]; 4 hours after IT injection of 3 mg [3H]F-araAMP) was 31 ± 6 nmoles F-araAMP/gram of tissue, the Weight loss ([6]; 3 mg F-araAMP IT per injection, 3 total injections) was “less than 4%” and the “Tumor growth, P versus vehicle treated group” value ([6]; 3 mg F-araAMP in saline IT once per day x3 from day 14, FIG. 2A) was under 0.001. The “Tumor growth, P versus vehicle treated group” value ([6]; 6 mg F-araAMP in DMSO IT once per day x3 from day 17, FIG. 2C) was 0.014, the Tumor ulcerations ([6]; 6 mg F-araAMP in DMSO IT x3) was “no ulcerations” and the “Tumor growth, P versus vehicle treated group” value ([6]; 24 mg F-araAMP in DMSO IT once per day x3 from day 17, FIG. 2C) was under 0.001. For the same compound, the “Tumors that became ulcerated” value ([6]; 24 mg F-araAMP in DMSO IT x3) was “Three of the 6”, the “Tumors completely regressed, mice tumor-free until day 70” value ([6]; 24 mg F-araAMP in DMSO IT x3, of 6 tumors, 3 sacrificed for ulceration) was 3 tumors and the “Decrease in body weight” value ([6]; F-araAMP IT at the highest dose (24 mg), recovered rapidly) was 7%. The “Tumor growth, P of 3 mg group versus 1.5 mg group” value ([6]; F-araAMP in saline IT once per day x3 from day 14, FIG. 2A) was 0.458, the “Effect on tumor growth” value ([2]; IT F-araAMP, FIGS. 2B, 2D and 3) was “no effect” and the Maximally tolerated dose [7] was 750 mg/kg.
For Nc1nc(F)nc2c1ncn2[C@H]1C[C@H](O)[C@@H](CO)O1 [F-dAdo, 2-F-2′-deoxyadenosine], the “Substrate for E. coli PNP compared with F-araA” value [8] is given as “much better substrate”.
For Ad/PNP, the “E. coli PNP activity in the tumors” value [9] was 7,500±2,000 units.
